From the NIST ThermoML archive (doi:10.1021/acs.jced.7b00023)
Numbers after ± are expanded uncertainties.

Columns and labels:
[1] = wn = mass fraction of the nth substance listed; details: 101.3 kPa, Liquid, Vibrating tube method
[2] = refractive index (Na D-line) (dimensionless); wn = mass fraction of the nth substance listed; details: 101.3 kPa, Liquid, Standard Abbe refractometry

mass density ([1]; 298.15 K, w1 = 0.263) [kg/m3] | mass density ([1]; 308.15 K, w1 = 0.2666) [kg/m3] | mass density ([1]; 318.15 K, w1 = 0.2669) [kg/m3] | refractive index ([2]; 298.15 K, w1 = 0.263) | refractive index ([2]; 308.15 K, w1 = 0.2666) | refractive index ([2]; 318.15 K, w1 = 0.2669) | mass density ([1]; 298.15 K, w1 = 0.6538) [kg/m3] | mass density ([1]; 308.15 K, w1 = 0.6693) [kg/m3] | mass density ([1]; 318.15 K, w1 = 0.6788) [kg/m3] | refractive index ([2]; 298.15 K, w1 = 0.6538) | refractive index ([2]; 308.15 K, w1 = 0.6693) | refractive index ([2]; 318.15 K, w1 = 0.6788) | Compound
1197.8 ± 3.1 | 1193.6 ± 3.1 | 1188.9 ± 3.1 | 1.3796 ± 0.002 | 1.3781 ± 0.002 | 1.3766 ± 0.002 | – | – | – | – | – | – | [Cl-].[Na+] [sodium chloride] + O
– | – | – | – | – | – | 1923.9 ± 3.6 | 1946.1 ± 3.6 | 1980.8 ± 3.7 | 1.4196 ± 0.002 | 1.4204 ± 0.002 | 1.4218 ± 0.002 | [Cl-].[Cs+] [cesium chloride] + O
